The values that follow come from PMC7367283, “A PIP2 substitute mediates voltage sensor-pore coupling in KCNQ activation” (Communications Biology, 2020).

Where “and” joins values, the source holds several entries; their conditions need not be identical. Identical values can stand only once.

This test has as its system guinea pig ventricular myocytes. Briefly: Action potential recording in ventricular myocytes with moxifloxacin-prolonged (LQT) action potentials. The class given is cell-based. More on the design: actional potential duration (APD), Fig. 7h: unit not given here. As to conditions: for actional potential duration (APD), Fig. 7h: Moxi-Group, individual cells. Here is the method:
Fig. 7 Effects of CP1 on IKs and action potentials in cardiomyocytes. a IKs currents in guinea pig ventricular myocytes in the absence and presence of 30 µM CP1 in the whole-cell patch-clamp configuration. Holding potential: −40 mV; testing potentials: −20 to +60 mV with 10-mV increment; returning potential: −20 mV. […] Guinea pig ventricular myocytes were first perfused with 10 µM CP1 and 10 µM chromanol. After APD reached steady state, 10 µM CP1 was constitutively perfused alone. Last, CP1 was washed out for near-full reversal of APD shortening. g Effects of 0.2 µM CP1 on LQT action potentials. To mimic the LQT, 100 µM moxifloxacin was applied 2 h before the treatment of CP1. h Change of action potential duration after application of different [CP1]s (n = 5–7). Tukey–Kramer ANOVA test was used to compare control cells in different CP1 concentration, # is significant at P < 0.05. Unpaired two-tailed Student t tests were used to compare control and moxifloxacin cells at different CP1 concentration: * is significant at P < 0.05.
In ventricular myocytes, the duration and the morphology of action potentials are determined by various ion channels. Mutations in many of these channels and drugs that modify channel functions, such as an increase in inward Na^+ currents or decrease in outward K^+ currents, may lead to a prolonged action potential duration, which results in an inherited or acquired long QT syndrome that predisposes afflicted patients to cardiac arrhythmia. An enhancement of the outward IKs current may be able to counter these mutations or drug effects, and restore the action potential duration to more normal values. […] Next, we used an IKr blocker (Moxifloxacin, Moxi) to prolong action potentials and then applied various concentrations of CP1.
The use of guinea pigs was approved by the Stony Brook University Institutional Animal Care and Use Committee. Single ventricular myocytes were acutely enzymatically isolated from guinea pig heart as previously described. Guinea pigs, weighing 300–500 g, were sacrificed by peritoneal injection of sodium pentobarbitone (1 ml, 390 mg/ml). The isolated cells were stored in KB solution containing (in mM) 83 KCl, 30 K2HPO4, 5 MgSO4, 5 Na pyruvate, 5 β-OH-butyric acid, 20 creatine, 20 taurine, 10 glucose, and 0.5 EGTA, pH 7.2.
Action potentials were recorded with whole-cell patch-clamp recording techniques. Current-clamp configuration was used. Freshly isolated guinea pig cardiac myocytes were placed at 1 Hz with a stimulus of 180-pA amplitude and 10-mS duration. The APD was determined at 90% repolarization. Several minutes were allowed for the APD to reach steady state before data were collected. Typical Tyrode mimic AP Solution for action potential recording was used. The bath solution is composed of (in mM) 140 NaCl, 3 KCl, 1 MgCl2, 1.8 CaCl2, 10 HEPES, and 10 Glucose, pH 7.4. The pipette solution is composed of (in mM) 115 K-aspartic acid, 35 KOH, 3 MgCl2, 10 HEPES, 11 EGTA, 5 Glucose, and 3 MgATP, pH 7.4.

Regarding `O=S(=O)([O-])Oc1c(-c2sc3c(ccc4cccc(Cl)c43)c2OS(=O)(=O)[O-])[nH]c2ccc(Br)cc12.[Na+].[Na+]` [CP1, DISODIUM 5-BROMO-2-[9-CHLORO-3-(SULFONATOOXY) NAPHTHO [1,2-B] THIEN-2-YL]-1H-INDOL-3-YL SULFATE], the action potential duration result is, setting by setting: (0.2 µM CP1, 100 µM moxifloxacin applied 2 h before) “return the action potential duration back to normal”; (0.6 and 6 µM CP1, moxifloxacin) “reduced Moxifloxacin-induced action potential prolongation”. Besides, the “actional potential duration (APD), Fig. 7h” value runs as follows: (0.2 µM CP1) 628 and 590 and 655 and 646 and 548 and 586; (0.6 µM CP1) 549 and 521 and 579 and 388 and 495; (6 µM CP1) 393 and 380 and 396 and 407 and 426 and 406.
